Test results published in patent US6620807B1, “Pyridobenzodiazepine and pyridobenzoxazepine carboxyamide vasopressin agonists” (Wyeth, priority 1999, dated 2003).

Target: T1, Vasopressin V2 (Rattus norvegicus, UniProt Q00788)
T1 construct: Vasopressin V2 Agonist Effects of Test Compounds in Normal Conscious Water-loaded Rats; from tissue; host or cells: whole animal: conscious water-loaded Sprague-Dawley rats (V2 receptors of the kidney collecting ducts)
Assay: Vasopressin V2 agonist effects of test compounds in normal conscious water-loaded rats
Format: in vivo
Details: oral dose of 10 mg/Kg, water-loaded Sprague-Dawley (CD) rats; for Changes in Urinary Osmolality: osmolality changes expressed as percent of control, urine collected for four hours; for Urine Volume (% decrease): percent decrease in urine volume vs. control, urine collected for four hours after dosing
Text: Vasopressin V2 Agonist Effects of Test Compounds in Normal Conscious Water-loaded Rats:
Male or female normotensive Sprague-Dawley rats (Charles River Laboratories, Inc., Kingston, N.Y.) of 350-500 g body weight were supplied with standard rodent diet (Purina Rodent Lab. Chow 5001) and water ad libitum. On the day of test, rats were placed individually into metabolic cages equipped with devices to separate the feces from the urine and containers for collection of urine. A test compound or a reference agent was given at an oral dose of 10 mg/Kg in a volume of 10 mL/Kg. The vehicle used was 20% dimethylsulfoxide (DMSO) in 2.5% preboiled corn starch. Thirty minutes after dosing the test compound, rats were gavaged with water at 30 mL/Kg into the stomach using a feeding needle. During the test, rats were not provided with water or food. Urine was collected for four hours after dosing of the test compound. At the end of four hours, urine volume was measured. Urinary osmolality was determined using a Fiske One-Ten Osmometer (Fiske Associates, Norwood, Mass., 02062) or an Advanced CRYOMATIC Osmometer, Model 3C2 (Advanced Instruments, Norwood, Mass.). Determinations of Na^+, K^+ and Cl^− ion were carried out using ion specific electrodes in a Beckman SYNCHRON EL-ISE Electrolyte System analyzer. The urinary osmolality should increase proportionally. In the screening test, two rats were used for each compound. If the difference in the urine volume of the two rats was greater than 50%, a third rat was used.

T1 sequence (Q00788 whole entry): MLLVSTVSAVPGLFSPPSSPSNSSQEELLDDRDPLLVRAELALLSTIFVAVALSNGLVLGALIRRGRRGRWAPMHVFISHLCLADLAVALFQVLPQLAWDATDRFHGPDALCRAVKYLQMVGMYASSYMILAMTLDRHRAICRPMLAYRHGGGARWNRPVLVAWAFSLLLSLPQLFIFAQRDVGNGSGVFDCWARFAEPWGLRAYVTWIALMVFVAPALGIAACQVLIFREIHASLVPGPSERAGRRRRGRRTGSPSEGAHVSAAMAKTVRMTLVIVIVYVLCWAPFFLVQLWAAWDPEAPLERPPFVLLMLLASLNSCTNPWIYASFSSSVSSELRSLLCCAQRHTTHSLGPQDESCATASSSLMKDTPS

Changes in Urinary Osmolality	Urine Volume (% decrease)	SMILES
247% of control	61 % decrease	O=C(c1ccc2c(c1)OCO2)N1Cc2cccnc2Nc2ccccc21 [Example 2, Benzo [1,3]Dioxol-5-yl-(5,11-dihydro-benzo[b]pyrido [2.3-e][1,4]Diazepin-6-yl)-mothanone]
54% of control	29 % decrease	O=C(c1ccc2c(c1)CCO2)N1Cc2cccnc2Nc2ccccc21 [Example 3, (5,11-Dihydro-benzo[b]pyrido [2.3-e][1,4]Diazepin-6-yl)-(2,3-dihydro-benzofuran-5-yl)-methanone]
	13 % decrease	O=C(c1ccc2nonc2c1)N1Cc2cccnc2Nc2ccccc21 [Example 4, Benzo[1,2,5]oxadiazol-5-yl-(5,11-dihydro-benzo[b]pyrido [2.3-e][1,4]Diazepin-6-yl)-methanone]
35% of control	21 % decrease	Cn1ccc2cc(C(=O)N3Cc4cccnc4Oc4ccccc43)ccc21 [Example 6]
78% of control	31 % decrease	O=C(c1ccc2ncsc2c1)N1Cc2cccnc2Nc2ccccc21 [Example 5]

SMILES	Changes in Urinary Osmolality	Urine Volume (% decrease)
Cn1ccc2cc(C(=O)N3Cc4cccnc4Nc4ccccc43)ccc21 [Example 1]	159% of control	74 % decrease
